According to ChEMBL document CHEMBL4831546, “Discovery of a Potent and Orally Bioavailable Hypoxia-Inducible Factor 2α (HIF-2α) Agonist and Its Synergistic Therapy with Prolyl Hydroxylase Inhibitors for the Treatment of Renal Anemia” (J Med Chem, 2021):

Molecular target: Endothelial PAS domain-containing protein 1 (Homo sapiens, UniProt Q99814)
Sequence (Q99814 whole entry, the tested form may be a part): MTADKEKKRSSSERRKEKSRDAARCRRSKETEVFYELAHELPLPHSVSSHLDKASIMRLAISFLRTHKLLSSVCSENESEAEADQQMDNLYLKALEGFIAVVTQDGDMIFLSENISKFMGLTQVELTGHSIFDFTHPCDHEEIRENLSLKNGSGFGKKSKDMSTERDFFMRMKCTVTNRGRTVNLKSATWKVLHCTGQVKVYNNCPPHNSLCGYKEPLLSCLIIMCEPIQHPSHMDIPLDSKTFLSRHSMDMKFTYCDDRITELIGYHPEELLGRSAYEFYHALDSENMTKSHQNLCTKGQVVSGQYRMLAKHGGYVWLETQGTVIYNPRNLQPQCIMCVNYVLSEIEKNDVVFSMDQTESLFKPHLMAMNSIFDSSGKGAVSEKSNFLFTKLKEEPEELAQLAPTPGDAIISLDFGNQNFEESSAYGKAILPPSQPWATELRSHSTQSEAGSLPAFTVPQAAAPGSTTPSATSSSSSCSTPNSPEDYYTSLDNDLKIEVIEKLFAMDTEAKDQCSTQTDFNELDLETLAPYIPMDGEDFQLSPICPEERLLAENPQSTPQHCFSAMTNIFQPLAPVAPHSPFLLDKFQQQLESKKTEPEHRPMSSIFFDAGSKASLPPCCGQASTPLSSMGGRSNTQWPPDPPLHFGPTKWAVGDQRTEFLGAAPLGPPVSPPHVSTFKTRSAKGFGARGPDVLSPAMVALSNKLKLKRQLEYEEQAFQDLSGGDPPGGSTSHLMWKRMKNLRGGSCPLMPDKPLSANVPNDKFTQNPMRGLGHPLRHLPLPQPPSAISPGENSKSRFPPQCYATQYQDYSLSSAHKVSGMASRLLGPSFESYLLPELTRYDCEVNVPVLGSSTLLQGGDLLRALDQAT
Description: Agonist activity at HIF-2alpha (unknown origin) expressed in 786-O cells measured after 24 hrs by HRE based luciferase reporter gene assay

- EC50: 2.92 µM
SMILES: Clc1cc(Cl)cc(Nc2nsc3ccccc23)c1
